Source: US20160346202A1, “Composition for Vectorizing an Anti-Cancer Agent” (GUERBET, priority 2014, published 2016)

Key:
[1] = Visual stability (phase separation) of the emulsion; assay type: physicochemical; details: comparative emulsions not in accordance with the invention
Description: The emulsion according to the invention is advantageously stable. The term “stable emulsion” is intended to mean an emulsion having, under conventional temperature (20° C.) and atmospheric pressure (1 bar) conditions and within 24 hours following its preparation, a visual phase separation of less than 5% by volume relative to the total composition in emulsion form. […] Visual phase separation manifests itself when a solution no longer appears uniform to the eye, i.e. when the appearance of at least two phases is observed.

[2] = Plasma kinetics of doxorubicin after TACE, VX2 rabbits; assay type: in vivo, New Zealand rabbits; details: intra-arterial injection 300 μl, mean (±SD)
Description: The tumor induction method described by Hong et al. (Clin Cancer Res 2006; 12 (8): 2563-2567) was used on New Zealand rabbits (NZ; supplier Charles River, France), anesthetized beforehand.
Fragments of VX2 tumor tissues are implanted (a fragment of 25 mg/per liver of NZ rabbit) under the hepatic capsule of the left lateral lobe of the rabbits. These rabbits with a tumor in the left hepatic lobe will subsequently be referred to as “VX2 rabbits”.
19 days after having carried out the tumor induction method, the TACE is carried out. Thus, the products (volume: 300 μl) are injected into the pre-anesthetized animals, using a catheter guided by fluoroscopy (X-ray imaging) via the femoral artery and brought up to the artery feeding the hepatic tumor (injection only where selectivity has been achieved). The TACE is carried out in a dedicated room and under conditions close to clinical practice (interventional radiology).
Blood samples of 300 μl at times 0, 5, 15, 30 or 45 minutes after intra-arterial injection were taken after catheterization of the ear vein. 200 μl of plasma after centrifugation were then recovered and heparinized for assaying the anti-cancer agent. A study of the plasma kinetics of the anti-cancer agent was thus carried out.
The plasma doxorubicin assay was carried out in the heparinized plasma of VX2 rabbits under the same conditions as those described above. […]

[3] = Plasma kinetics of the anti-cancer agent after intra-arterial (TACE) injection, rat with N1-S1 tumor; assay type: in vivo, female Sprague-Dawley rats; details: female, Sprague-Dawley, rat N1-S1 model
Description: The tumor induction method described in Garin et al. (Lab Anim. 2005 July; 39(3): 314-20) was used on female Sprague-Dawley rats (supplier Dépré or Janvier, France), anesthetized beforehand.
6×10^6 N1-S1 rat hepatocellular carcinoma tumor cells (deposited at ATCC under the reference CRLL-1604™, also called Novikoff cells) suspended in 100 μl of IMDM medium (Iscove's Modified Dulbecco's Medium) were administered under the hepatic capsule of the left lateral lobe of the female rats, by slow injection over the course of approximately 50 seconds. […]
The plasma doxorubicin assay was carried out in the heparinized rat plasma by high performance liquid chromatography (or HPLC), the chromatograph being equipped with a fluorescence detector. […] 10 μl of the extract were analyzed by reverse-phase HPLC on a Zorbax 300SB-C18 4.6×150 mm, 3.5 μm column (with a Zorbax 300SB-C18 4.6×12.5 mm, 5 μm precolumn) and fluorimetric detection (excitation wavelength 480 nm, emission wavelength 560 nm).
The analysis was carried out over the course of 30 minutes with a 5 mM ammonium acetate, pH 3.5/acetonitrile gradient. […] When the area of the HPLC peak was greater than the upper limit of quantification, 5 μl were injected instead of 10 μl in order to obtain an area of doxorubicin included in the range. […]

Compound | Observations: phase separation / stability [1] | concentration at 5 min ([2]; New Zealand, rabbit, plasma, read-out: Plasma concentration of the anti-cancer agent 5 minutes after injection) | Plasma concentration of the anti-cancer agent 5 minutes after injection ([2]; listed as Control doxorubicin alone given IA) | concentration at 45 min ([3]; 45 min after intra-arterial injection, read-out: Plasma doxorubicin concentration at 45 min) | concentration at 5 min ([3]; intra-arterial injection 100 μl, 0.5 mg anti-cancer agent, average)
Span® 83 | underwent phase separation immediately after they were prepared |  |  |  | 
COc1cccc2c1C(=O)c1c(O)c3c(c(O)c1C2=O)C[C@@](O)(C(=O)CO)C[C@@H]3O[C@H]1C[C@H](N)[C@H](O)[C@H](C)O1 [Control doxorubicin alone, doxorubicin] |  | 563 ± 282 ng/mL | 563 ± 282 ng/mL | 112 ng/mL | 2450 ng/mL
Span® 85 | underwent phase separation immediately after they were prepared |  |  |  | 
Span® 20 | underwent phase separation immediately after they were prepared |  |  |  | 
